The supplement of paper PMC10307832

Legend:
Experiment in all cases: relative viability (nuclei count vs DMSO), 5 days (fraction); higher = more cells survive
Pictilisib + Alpelisib = compound: CS(=O)(=O)N1CCN(Cc2cc3nc(-c4cccc5[nH]ncc45)nc(N4CCOCC4)c3s2)CC1 [Pictilisib] + Cc1nc(NC(=O)N2CCC[C@H]2C(N)=O)sc1-c1ccnc(C(C)(C)C(F)(F)F)c1 [Alpelisib] (partner 2 µM)
Summary of the method: (§1)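 Relative viability was taken as the ratio of nuclei in treated wells to nuclei in vehicle wells. Lung cancer cell lines in 1536-well plates received compounds by pin tool one day after seeding, either one drug alone or a fixed anchor-drug dose plus five library-drug doses (not always all listed) in √10 steps. Nuclei were counted on 4× images after 5 days of treatment, and values are medians of duplicate plates.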

MK-2206 + Vorinostat = compound: NC1(c2ccc(-c3nc4ccn5c(=O)[nH]nc5c4cc3-c3ccccc3)cc2)CCC1 [MK-2206] + O=C(CCCCCCC(=O)Nc1ccccc1)NO [Vorinostat] (partner 1 µM)
Summary of the method: as §1

MK-2206 + Pemetrexed = compound: NC1(c2ccc(-c3nc4ccn5c(=O)[nH]nc5c4cc3-c3ccccc3)cc2)CCC1 [MK-2206] + Nc1nc2[nH]cc(CCc3ccc(C(=O)N[C@@H](CCC(=O)O)C(=O)O)cc3)c2c(=O)[nH]1 [Pemetrexed] (partner 0.2 µM)
Summary of the method: as §1

Pictilisib + Palbociclib = compound: CS(=O)(=O)N1CCN(Cc2cc3nc(-c4cccc5[nH]ncc45)nc(N4CCOCC4)c3s2)CC1 [Pictilisib] + CC(=O)c1c(C)c2cnc(Nc3ccc(N4CCNCC4)cn3)nc2n(C2CCCC2)c1=O [Palbociclib] (partner 0.5 µM)
Summary of the method: as §1

Pictilisib + Linsitinib = compound: CS(=O)(=O)N1CCN(Cc2cc3nc(-c4cccc5[nH]ncc45)nc(N4CCOCC4)c3s2)CC1 [Pictilisib] + C[C@]1(O)C[C@@H](c2nc(-c3ccc4ccc(-c5ccccc5)nc4c3)c3c(N)nccn32)C1 [Linsitinib] (partner 1 µM)
Summary of the method: as §1

Cell Line	relative viability (Pictilisib + Alpelisib; first compound 0.02 µM)	relative viability (Pictilisib + Alpelisib; first compound 0.06325 µM)	relative viability (Pictilisib + Alpelisib; first compound 0.6325 µM)	relative viability (Pictilisib + Alpelisib; first compound 2 µM)	relative viability (MK-2206 + Vorinostat; first compound 0.01 µM)	relative viability (MK-2206 + Vorinostat; first compound 0.03162 µM)	relative viability (MK-2206 + Vorinostat; first compound 0.3162 µM)	relative viability (MK-2206 + Vorinostat; first compound 1 µM)	relative viability (MK-2206 + Pemetrexed; first compound 0.01 µM)	relative viability (MK-2206 + Pemetrexed; first compound 0.03162 µM)	relative viability (MK-2206 + Pemetrexed; first compound 0.3162 µM)	relative viability (MK-2206 + Pemetrexed; first compound 1 µM)	relative viability (Pictilisib + Palbociclib; first compound 0.02 µM)	relative viability (Pictilisib + Palbociclib; first compound 0.06325 µM)	relative viability (Pictilisib + Palbociclib; first compound 0.6325 µM)	relative viability (Pictilisib + Palbociclib; first compound 2 µM)	relative viability (Pictilisib + Linsitinib; first compound 0.02 µM)	relative viability (Pictilisib + Linsitinib; first compound 0.06325 µM)	relative viability (Pictilisib + Linsitinib; first compound 0.6325 µM)	relative viability (Pictilisib + Linsitinib; first compound 2 µM)
NCI-H2023	0.546	0.488	0.445	0.32	0.54	0.428	0.431	0.391	0.266	0.195	0.25	0.209	0.339	0.33	0.161	0.148	0.508	0.414	0.208	0.264
Calu-6	1.01	0.967	0.909	0.833													0.981	1.02	0.868	0.829
SW 900					0.527		0.554	0.299	0.494		0.497	0.491	0.543	0.58	0.358	0.252				
HOP-62	1.09	0.854	0.788	0.935	0.491	0.632	0.492	0.656	0.381	0.272	0.273	0.375	0.526	0.423	0.399	0.287	1.03	0.868	0.759	0.779
H3255	0.684	0.601	0.601	0.523	0.779	0.803	0.724	0.617	0.557	0.614	0.538	0.508	0.314	0.375	0.297	0.292	1.04	0.823	0.84	0.467
NCI-H1734	0.709	0.588	0.546	0.406	0.877	0.822	0.629	0.67	0.393	0.391	0.401	0.391	0.303	0.338	0.281	0.192	0.901	0.797	0.615	0.332
SK-MES-1	0.856	0.804	0.634	0.45	1.02	1.15	1.02	1.05	0.881	0.938	0.899	0.816	0.326	0.302	0.346	0.262	1.02	1.01	0.836	0.456
NCI-H1792	0.72	0.715	0.657	0.36					0.76	0.929	0.654	0.373	0.62	0.693	0.512	0.34	0.502	0.547	0.446	0.262
EKVX	0.913	0.882	0.761	0.339	0.681	0.684	0.648	0.693	0.372	0.386	0.393	0.356	0.378	0.348	0.348	0.184	1.02	0.948	0.749	0.429
